Experimental data from patent US9624228B2, “Inhibitors of ERK and methods of use” (KURA ONCOLOGY, INC., priority 2013, dated 2017).
Where two headings read alike, the source gives them in different places.

How the values were obtained:
[1] = control or reference compounds, 5 μM; cited from earlier work
[2] = tested on: phospho-RSK1 (Thr359/Ser363) in A375 (Braf V600E) cells; assay: Phospho-p90 RSK ELISA using A375 (Braf V600E) cells; type: cell-based; details: Homo sapiens, A-375, 2 hours compound treatment, read-out: Cellular Phospho-p90RSK IC50
Description: In preparation for the assay, an ELISA plate with the pre-coated goat anti-mouse antibody (Thermo Scientific) was treated with a mouse anti-human RSK1 antibody (monoclonal, Invitrogen) at 1:800 dilution (150 ng/well) in PBS, and the plate was placed on a plate shaker at 4° C. overnight. […] After two hours of the compound treatment, the supernatant was removed from the cell plate, and cells were lysed in 100 μl per well of cell lysis buffer (Cell Signaling Technologies) containing phosphatase and protease inhibitors (Cell Signaling Technologies) on a plate shaker at 4° C. for 20 minutes. The ELISA plate was washed four times with ELISA wash buffer (Thermo Scientific) prior to addition of 100 μL cell lysate. The lysate was incubated on the ELISA plate with gentle shaking at room temperature for 2 hours. The contents of the wells were removed, and the ELISA plate was washed four times with wash buffer, and incubated with 100 μL per well of anti-phospho-RSK1 (Thr359/Ser363) rabbit monoclonal antibody (Millipore) at dilution of 1:1000 in StartingBlock buffer (Thermo Scientific) on a plate shaker at room temperature for 1 hour. The contents of the wells were removed, the ELISA plate was washed four times with wash buffer, and was incubated with 100 μL per well of goat anti-rabbit HRP (Thermo Scientific) at dilution of 1:3000 in StartingBlock buffer (Thermo Scientific) on a plate shaker at room temperature for 1 hour. The contents of the wells were removed, the ELISA plate was washed four times with wash buffer, and then incubated with 100 μL per well of TMB substrate solution (Thermo Scientific) on a plate shaker at room temperature for 20 minutes. Finally, 100 μL of TMB stop solution (Thermo Scientific) was added to each well and the absorbance is measured at 450 nm on a Tecan plate reader.

ERK2 enzyme = ERK2 enzyme (Homo sapiens (Human), UniProt P28482); assay: Inhibition assay of ERK (Z'-LYTE kinase assay, Ser/Thr 3 peptide substrate); type: biochemical; details: 100 μM ATP
ERK2 enzyme, sequence (P28482 whole entry): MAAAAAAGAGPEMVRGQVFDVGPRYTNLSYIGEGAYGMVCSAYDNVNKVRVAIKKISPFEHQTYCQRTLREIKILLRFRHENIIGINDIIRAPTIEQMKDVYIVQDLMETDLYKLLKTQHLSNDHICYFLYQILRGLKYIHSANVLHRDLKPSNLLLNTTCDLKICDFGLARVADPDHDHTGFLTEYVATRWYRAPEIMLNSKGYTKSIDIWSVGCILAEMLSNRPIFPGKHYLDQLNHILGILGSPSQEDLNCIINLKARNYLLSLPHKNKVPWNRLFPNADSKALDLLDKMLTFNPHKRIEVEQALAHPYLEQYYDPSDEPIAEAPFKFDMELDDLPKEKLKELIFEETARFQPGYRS

WM-266-4 cells = assay: Tumor cell line proliferation assay (CellTiter Glo), WM-266-4; details: Homo sapiens, WM 266-4, 96 h, read-out: WM-266-4 (V599D) Cell Proliferation IC50 (nM)
Description: (§1) The ability of one or more compounds of the invention to inhibit tumor cell line proliferation was determined according to standard procedures known in the art. For instance, an in vitro cellular proliferation assay was performed to measure the metabolic activity of live cells. […] The cells were incubated at 37° C. under 5% CO2 for two hours to allow for attachment to the plates. Compounds were first diluted in 1:3 dilutions in 100% DMSO at 250× the desired concentration, and then further diluted (1:50) in 10% DMEM growth medium. The diluted compounds were added to the cell plate (25 μL for a 5× dilution) and the cells are incubated with compounds (0.4% DMSO in 10% FBS DMEM) for 96 hours at 37° C. under 5% CO2. The cell control wells were added with vehicle only (0.4% DMSO in 10% FBS DMEM or in 10% FBS RPMI). Each concentration of the compounds was tested in duplicates. After 96 hours of the compound treatment, CellTiter Glo reagent (Promega) was added at a 1:5 dilution to each well of the cell plate and the cell plate was placed at room temperature for 30 minutes. The luminescence of the wells was determined using a Tecan plate reader.

A375 cells = assay: Tumor cell line proliferation assay (CellTiter Glo), A375; type: cell-based; details: Homo sapiens, read-out: A375 (V599E) Cell Proliferation IC50
H358 (Kras, G12C) cells = assay: Tumor cell line proliferation assay (CellTiter Glo), H358; details: Homo sapiens, NCI-H358, 96 h, read-out: H358 (Kras, G12C) Cell Proliferation IC50 (nM)
Description: as §1

[3] = PBS pH 7.4, 37° C., over the course of 24 hours; cited from earlier work
[4] = In vitro, ERK2 enzyme 0.47 ng/μL

Row | IC50 (ERK2 enzyme; [4]) [nM] | IC50 (ERK2 enzyme; In vitro ERK2 enzyme) [nM] | SMILES | further results
1 |  |  | CCCOc1cc(N)ccc1C(=O)OCCN(CC)CC [propoxycaine] | plasma stability [1]: low plasma stability
2 | 50 to 250 |  | Cc1cc(-c2n[nH]c3cc4c(cc23)CC([C@H](C)c2ccccc2)C(=O)N4)ccn1 (some centres unmarked) [Compound 371] | IC50 [2]: 250 to 1000 nM
3 |  | < 50 | Cc1cc(-c2n[nH]c3cc4[nH]c(=O)c(C(C)c5ccc(F)cc5)cc4cc23)ccn1 (centres unmarked) [Compound 197] | IC50 [2]: < 250 nM; IC50 (A375 cells; A-375, 96 h): < 250 nM; IC50 (H358 (Kras, G12C) cells): < 250 nM
4 | 50 to 250 |  | O=C1Nc2cc3[nH]nc(NC4CCOCC4)c3cc2CN1[C@@H]1CN(CC(F)(F)F)C[C@H]1c1ccccc1 [Compound 361] | IC50 [2]: < 250 nM
5 |  |  | CC(C)[N+](C)(CCOC(=O)C1c2ccccc2Oc2ccccc21)C(C)C [propantheline] | plasma stability [1]: intermediate plasma stability
6 |  | < 50 | Cc1cc(-c2n[nH]c3cc4c(cc23)CN([C@@H]2CCCN(C(=O)c3cccc(Cl)c3)C2)C(=O)N4)ccn1 [Compound 152] | IC50 [2]: 250 to 1000 nM
7 | < 50 |  | Cc1cc(-c2n[nH]c3cc4[nH]c(=O)c([C@H](C)c5ccc(F)cc5)cc4cc23)ccn1 [Compound 288] | IC50 [2]: < 250 nM
8 |  | < 50 | O=C1Nc2cc3[nH]nc(-c4ccnnc4)c3cc2CN1Cc1cccc(Cl)c1 [Compound 66] | IC50 [2]: 250 to 1000 nM
9 |  |  | O=C(O)CCCc1ccc(N(CCCl)CCCl)cc1 [chlorambucil] | chemical stability [3]: largely hydrolyzed
10 | < 50 |  | Cc1cc(-c2n[nH]c3cc4c(cc23)CN([C@@H]2CN(CC(F)F)C[C@H]2c2ccccc2)C(=O)N4)cc(C)n1 (mixture of isomers) [Compound 379] | 
11 | < 50 |  | Cc1cc(-c2n[nH]c3cc4c(cc23)CN(Cc2cccs2)C(=O)N4)cc(C)n1 [Compound 227] | 
12 | < 50 |  | Cc1cc(-c2n[nH]c3cc4c(cc23)CN([C@@H]2CN(CC(F)(F)F)C[C@H]2c2cccs2)C(=O)N4)ccn1 (mixture of isomers) [Compound 321] | 
13 |  | < 50 | Cc1cc(-c2n[nH]c3cc4c(cc23)CN([C@H](C)c2cccc(Cl)c2)C(=O)N4)ccn1 [Compound 35] | 
14 |  | < 50 | Cc1ccc(-c2n[nH]c3cc4c(cc23)CN(Cc2cccc(Cl)c2)C(=O)N4)cn1 [Compound 58] | 
15 | < 50 |  | Cn1cc(-c2n[nH]c3cc4c(cc23)CN([C@@H]2CCCN(Cc3ccc(F)cc3F)C2)C(=O)N4)cn1 [Compound 281] | 
16 | 250 to 1000 |  | Cc1cc(-c2n[nH]c3cc4c(cc23)CN(C2CN(Cc3cc(F)cc(F)c3)CC(F)(F)C2)C(=O)N4)ccn1 (centres unmarked) [Compound 202] | 

Row | IC50 (ERK2 enzyme; [4]) [nM] | IC50 (ERK2 enzyme; In vitro ERK2 enzyme) [nM] | SMILES | further results
17 |  | < 50 | Cc1cc(-c2n[nH]c3cc4c(cc23)CN(CCc2cccc(Cl)c2)C(=O)N4)ccn1 [Compound 50] | 
18 |  | < 50 | Cc1cc(-c2n[nH]c3cc4c(cc23)CN([C@@H]2CCCN(Cc3cnn(C)c3)C2)C(=O)N4)ccn1 [Compound 133] | 
19 |  | < 50 | Cc1cc(-c2n[nH]c3cc4c(cc23)CN(Cc2cccc(Cl)c2)C(=O)N4)ccn1 [Compound 4] | 
20 |  | 50 to 250 | Cc1cc(-c2n[nH]c3cc4c(cc23)CN([C@@H]2CCCN(CC3(C)CC3)C2)C(=O)N4)ccn1 [Compound 182] | 
21 | < 50 |  | Cc1cc(-c2n[nH]c3cc4c(cc23)CN(Cc2ccccc2)C(=O)N4)ccn1 [Compound 372] | 
22 | < 50 |  | Cc1cc(-c2n[nH]c3cc4c(cc23)CN([C@@H]2CN(C)C[C@H]2c2ccccc2)C(=O)N4)ccn1 (racemic) [Compound 241] | 
23 | 50 to 250 |  | COc1ncc(-c2n[nH]c3cc4c(cc23)CN(C2CN(Cc3ccccc3)CC(F)(F)C2)C(=O)N4)cn1 (centres unmarked) [Compound 320] | 
24 |  | < 50 | Cc1cc(-c2n[nH]c3cc4[nH]c(=O)c([C@H](C)c5ccccc5)cc4cc23)ccn1 [Compound 84] | 
25 |  | < 50 | Cc1cc(-c2n[nH]c3cc4c(cc23)CN([C@@H]2CCCN(C)C2)C(=O)N4)ccn1 [Compound 33] | 
26 | < 50 |  | Cc1cc(-c2n[nH]c3cc4c(cc23)CN([C@H]2CCCN(Cc3ccccc3)C2)C(=O)N4)cc(C)n1 [Compound 363] | 
27 | 50 to 250 |  | Cc1cc(-c2n[nH]c3cc4c(cc23)CN([C@@H]2CN(C)C[C@H]2c2ccc(F)cc2)C(=O)N4)cc(C)n1 (racemic) [Compound 305] | 
28 |  | < 50 | Cc1cc(-c2n[nH]c3cc4c(cc23)CN([C@@H]2CCCN(Cc3cc(F)ccc3F)C2)C(=O)N4)ccn1 [Compound 187] | 
29 | 50 to 250 |  | Cc1cc(-c2n[nH]c3cc4[nH]c(=O)c(C5CCCN(Cc6cccs6)C5)cc4cc23)ccn1 (centres unmarked) [Compound 378] | 
30 | < 50 |  | CC(c1ccccc1)c1cc2cc3c(-c4ccnc(N5CCOCC5)c4)n[nH]c3cc2[nH]c1=O (centres unmarked) [Compound 325] | 
31 | < 50 |  | Cc1cc(-c2n[nH]c3cc4c(cc23)CN(Cc2ccc(C(F)(F)F)cc2)C(=O)N4)cc(C)n1 [Compound 233] | 
32 | < 50 |  | COc1ccc(-c2n[nH]c3cc4c(cc23)CN([C@@H]2CCN(CC(F)(F)F)C2)C(=O)N4)cn1 [Compound 277] | 

Row | SMILES | IC50 (ERK2 enzyme; [4]) [nM] | IC50 (ERK2 enzyme; In vitro ERK2 enzyme) [nM] | further results
33 | Cc1cc(-c2n[nH]c3cc4[nH]c(=O)c(Cc5ccccc5)cc4cc23)ccn1 [Compound 6] |  | 50 to 250 | IC50 (WM-266-4 cells): 250 to 1000 nM; IC50 (A375 cells; A-375, 96 h): 250 to 1000 nM
34 | Cc1cc(-c2n[nH]c3cc4[nH]c(=O)c(C(C)c5cccc(Cl)c5)cc4cc23)ccn1 (centres unmarked) [Compound 181] |  | 50 to 250 | IC50 [2]: < 250 nM; IC50 (A375 cells; A-375, 96 hours): < 250 nM; IC50 (H358 (Kras, G12C) cells): < 250 nM
